Test results taken from patent US20230365568A1, “PLK1 POLO BOX DOMAIN INHIBITORS AND METHOD OF TREATING CANCER” (The United States of America,as represented by the …, priority 2020, published 2023).
Read-outs that look alike come from different tables or passages of the source.

Columns and labels:
[1] = in vitro; conditions: PAMPA
[2] = Microsomal metabolic stability, rat liver microsomes (RLM); conditions: rat liver microsomes
[3] = Aqueous solubility; conditions: for Solub.: aqueous solubility
[4] = test system: CYP3A; assay: Mouse liver microsome assay with CYP-specific inhibitors; format: in vitro ADME; conditions: mouse liver microsomes
Protocol: In Vitro MLM Assay. Incubations of the mouse liver microsome (MLM) samples were performed in duplicate. Reactions (200 μL final volume) were conducted in 50 mM potassium phosphate buffer, 3 mM MgCl2 (pH 7.4), 1 mg/mL MLM protein, and 2.5 μM test compound with or without 50 μM inhibitor. The mixture was preincubated at 37° C. for 3 min and initiated with 4 mM NADPH. At the serial time of the incubation, 20 μL of the mixture was added to ice-cold 80 μL of 90% acetonitrile including 4 μM of 4 followed by a 25 min incubation on ice and centrifugation at 14,000×g for 10 min. 40 μL of supernatant was diluted with 20 μL of water, and a 5 μL aliquot was injected into the UPLC-QTOF system.
To evaluate metabolic stability information, S-methyl 51 and 5-thio-1-methyl-4-nitroimidazolyl 73 prodrugs were administered orally in male C57BL/6 mice via gavage 50 mg/kg or 20 mg/kg, respectively. […] The AUCs of 14 were 523,200 mg-h/L and 317,600 mg-h/L in 50 mg/kg and 20 mg/kg doses, respectively. Compound 14 was further metabolized by glucuronidation. […] The presence of the 9-F group impeded the hydroxylation, compared to the PK studies in Alverez et al. (J. Med. Chem. 63, 14087-14117 (2020)).

[5] = molecular target: PBD of Plk3 (Homo sapiens (Human), UniProt Q9H4B4); assay: Fluorescence polarization (FP)-based PBD inhibition assay, Plk3; format: binding
Sequence of PBD of Plk3 (Q9H4B4 335-646): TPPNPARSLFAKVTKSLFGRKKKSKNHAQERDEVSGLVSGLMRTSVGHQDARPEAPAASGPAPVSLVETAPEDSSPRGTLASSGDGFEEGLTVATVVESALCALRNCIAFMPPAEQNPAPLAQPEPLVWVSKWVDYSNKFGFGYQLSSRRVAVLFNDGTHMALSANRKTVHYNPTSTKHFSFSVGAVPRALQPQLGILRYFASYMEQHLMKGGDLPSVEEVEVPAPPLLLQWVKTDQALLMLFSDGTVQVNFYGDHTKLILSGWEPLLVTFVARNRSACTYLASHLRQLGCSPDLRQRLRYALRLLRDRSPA
Protocol: (§1) FP assays were carried out essentially as described previously (Qian, ibid). […] All experiments were performed in triplicate for each sample.
(§2) PBD Fluorescence Polarization (FP) Binding Assays for Plk1 specificity. […] All experiments were performed in triplicate for each sample.

[6] = molecular target: PBD of Plk2 (Homo sapiens (Human), UniProt Q9NYY3); assay: Fluorescence polarization (FP)-based PBD inhibition assay, Plk2; format: binding
Sequence of PBD of Plk2 (Q9NYY3 355-685): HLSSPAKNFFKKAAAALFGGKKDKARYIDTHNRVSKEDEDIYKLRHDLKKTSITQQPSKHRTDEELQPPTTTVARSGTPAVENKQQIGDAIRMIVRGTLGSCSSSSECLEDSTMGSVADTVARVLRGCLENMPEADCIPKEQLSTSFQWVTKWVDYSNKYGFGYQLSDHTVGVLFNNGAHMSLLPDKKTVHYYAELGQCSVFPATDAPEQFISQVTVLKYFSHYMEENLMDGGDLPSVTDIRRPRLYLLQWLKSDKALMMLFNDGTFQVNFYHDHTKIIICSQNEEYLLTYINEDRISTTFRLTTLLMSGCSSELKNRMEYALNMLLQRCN
Protocol: as §1, §2

[7] = test system: HeLa cells; conditions: cancer cells in vitro; Alverez et al., 2020; cited from earlier work
[8] = molecular target: T1, PBD of Plk1 (Homo sapiens (Human), UniProt P53350); conditions: Gunasekaran et al., 2020; cited from earlier work
T1 sequence (P53350 326-603): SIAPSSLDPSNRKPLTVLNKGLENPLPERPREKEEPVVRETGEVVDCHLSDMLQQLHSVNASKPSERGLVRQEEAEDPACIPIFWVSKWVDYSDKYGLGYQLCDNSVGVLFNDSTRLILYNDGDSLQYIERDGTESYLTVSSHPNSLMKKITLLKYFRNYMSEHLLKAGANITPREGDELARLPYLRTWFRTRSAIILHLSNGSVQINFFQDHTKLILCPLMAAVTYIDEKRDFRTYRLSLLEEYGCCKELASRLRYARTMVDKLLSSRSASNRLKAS

[9] = rat, microsomes
[10] = molecular target: T1, PBD of Plk1; assay: Fluorescence polarization (FP)-based PBD inhibition assay, Plk1; format: binding
Protocol: as §1, §2

[11] = Stability in mouse liver microsomes; format: in vitro ADME; conditions: read-out: t1/2 Mouse LM
[12] = Stability in mouse cytosol; format: in vitro ADME; conditions: read-out: t1/2 Mouse cytosol
[13] = Stability in rat cytosol; format: in vitro ADME; conditions: read-out: t1/2 Rat cytosol
[14] = Stability in rat liver microsomes (Table 10); format: in vitro ADME; conditions: read-out: t1/2 Rat LM
[15] = In vivo mouse pharmacokinetics, intraperitoneal; conditions: mice
Protocol: The National Cancer Institute Animal Care and Use Committee approved all animal experiments conducted in this study.
In the in vivo mouse pharmacokinetics study, 6-8-week-old male C57BL/6 mice were selected for metabolite profiling. In brief, 200 μL/20 g mice of WA (20 mg/kg dissolved in 5% DMSO and 5% Tween 80-contained saline) was administered intraperitoneally to mice. Control mice were treated with saline containing 5% DMSO and 5% Tween 80 alone. […] Blood samples were collected by retro-orbital bleeding at 4 h postdose. After centrifugation for 10 min at 14 000×g, serum was obtained and prepared by mixing 20 μL serum with 180 μL 50% aqueous acetonitrile. After centrifugation at 14 000×g for 20 min, a 5 μL aliquot of the supernatants was injected into a Waters UPLC-ESI-QTOFMS system (Waters Corporation, Milford, MA).

[16] = Stability in human liver microsomes; format: in vitro ADME; conditions: read-out: t1/2 Human LM
[17] = Stability in human cytosol; format: in vitro ADME; conditions: read-out: t1/2 Human cytosol
[18] = In vitro stability in mice (mouse liver microsome assay); format: in vitro ADME; conditions: liver microsomes, pH 7.4, read-out: t1/2 in vitro
Protocol: The reaction was stopped by an aliquot of 200 μL of ice-cold acetonitrile after 60 min. After centrifugation at 14 000×g for 10 min, a 5 μL aliquot of the supernatant was injected into a UHPLC-[…]. […] A trace amount of the subsequent glucuronide of the demethylated metabolite was also seen in the serum, as it could be promptly excreted from the liver to the bile, once generated, and can then undergo enterohepatic circulation through which the demethylated product is reabsorbed to the circulation. This could also serve as an explanation for the increased demethylated metabolite at the last time point.

[19] = molecular target: full-length human Plk1 (Homo sapiens (Human), UniProt P53350); assay: ELISA-based Plk1 PBD-binding inhibition assay; conditions: Plk1 PBD; n = 3 unless noted
Sequence of full-length human Plk1 (P53350 whole entry): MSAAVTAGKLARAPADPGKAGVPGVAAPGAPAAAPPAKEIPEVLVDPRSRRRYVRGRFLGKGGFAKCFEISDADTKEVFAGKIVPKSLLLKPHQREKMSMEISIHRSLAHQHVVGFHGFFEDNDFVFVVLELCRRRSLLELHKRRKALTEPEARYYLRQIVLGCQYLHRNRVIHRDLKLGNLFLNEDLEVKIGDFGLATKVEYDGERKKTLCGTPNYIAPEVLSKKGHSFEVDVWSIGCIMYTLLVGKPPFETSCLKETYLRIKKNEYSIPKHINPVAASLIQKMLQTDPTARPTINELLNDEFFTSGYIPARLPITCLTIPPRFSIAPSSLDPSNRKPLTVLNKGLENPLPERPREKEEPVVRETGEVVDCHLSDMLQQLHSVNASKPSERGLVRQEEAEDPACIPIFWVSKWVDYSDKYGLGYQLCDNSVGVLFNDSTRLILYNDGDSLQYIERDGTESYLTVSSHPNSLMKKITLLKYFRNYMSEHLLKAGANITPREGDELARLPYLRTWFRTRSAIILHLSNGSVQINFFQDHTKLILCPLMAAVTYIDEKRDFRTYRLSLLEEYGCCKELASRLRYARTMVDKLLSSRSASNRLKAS
Protocol: An ELISA-based PBD-binding inhibition assay was performed essentially as described previously. […] The wells were washed once with PBS+0.05% Tween20 (PBST) and incubated with 200 μl of PBS plus 1% BSA (blocking buffer) for 1 h to prevent non-specific binding. HEK293A lysates expressing HA-EGFP-Plk1 were prepared in a TBSN [20 mM Tris-HCl (pH 8.0), 150 mM NaCl, 0.5% NP-40, 5 mM EGTA, 2 mM MgCl2, 1.5 mM EDTA, and protease inhibitor cocktail (Roche)]+20% DMSO buffer (˜20 μg total lysates in 100 μl buffer), mixed with the indicated amount of the competitors (p-T78 peptide and its derivative compounds) for 30 min, provided onto the biotinylated peptide-coated ELISA wells, and then incubated with constant rocking for 1 h at 25° C. Following the incubation, ELISA plates were washed 5 times with PBST. To detect bound HA-EGFP-Plk1, the plates were probed for 2 h with 100 μl/well of anti-HA antibody at a concentration of 0.5 μg/ml in the blocking buffer and then washed 5 times. The plates were further probed for 1 h with 100 μl/well of HRP-conjugated secondary antibody (GE Healthcare) at a 1:1,000 dilution in the blocking buffer. The plates were washed 5 times with PBST and incubated with 100 μl/well of 3,3′,5,5′-tetramethylbenzidine solution (Sigma-Aldrich, St. Louis, MO) as substrate until a desired absorbance was reached. The reactions were stopped by the addition of 100 μl/well of stop solution (Cell Signaling Technology, Danvers, MA). The optical density (O.D.) was measured at 450 nm by using a Perkin-Elmer Enspire Multimode Plate reader (PerkinElmer, Inc., Boston, MA). Data obtained from more than three independent experiments were analyzed by GraphPad (San Diego, CA) Prism software version 7.
ELISA-based PBD-binding Inhibition Assay. […] The reaction products were measured at 450 nm by using a Perkin-Elmer Enspire Multimode Plate reader (PerkinElmer, Inc., Boston, MA). Data obtained from more than three independent experiments were analyzed by GraphPad (San Diego, CA) Prism software version 7.

[20] = test system: Plk1 localization to centrosomes and kinetochores in HeLa cells; assay: Immunostaining of Plk1 localization and spindle morphology in HeLa cells; format: cell-based; conditions: 100 μM; for inhibition at 100 µM: Homo sapiens
Protocol: HeLa cells were cultured as recommended by the American Type Culture Collection (ATCC). Asynchronously growing cells were treated with control DMSO or the indicated concentration of 143. To reveal chromosome morphologies, cells were treated with 4′,6-diamidino-2-phenylindole (DAPI), fixed, and subjected to confocal microscopy. Immunostaining was carried out using anti-Plk1 (Santa Cruz Biotechnology, Santa Cruz, CA), anti-Cep63 (MilliporeSigma), anti-CREST (Antibodies Incorp, Davis, CA), and anti-α-tubulin (Sigma, St. Louis, MO) antibodies. Confocal images were acquired using a Zeiss LSM780 equipped with a plan-apochromat 63× (N.A. 1.4) oil-immersion objective lens, 34-channel GaAsP spectral detector (Carl Zeiss Microscopy, LLC.), and 8-bit, 0.5-μm z-steps.
To quantify fluorescence signal intensities, images were acquired under the same settings and the images obtained after the maximum-intensity projection of z-stacks were analyzed using the Zeiss ZEN v2.1 software (Carl Zeiss Microscopy, LLC). All the quantifications were performed with randomly chosen fields from at least three independent experiments. All values are given as mean±s. D. P values were calculated by unpaired t test from the mean data of each group in Graph Pad Prism (***P<0.001). The statistical details including the definitions and value of n (e.g., number of experimental replicates, cells, etc.) And standard deviations are provided herein.
To directly examine whether the observed mitotic arrest was the consequence of inhibiting Plk1 PBD function, immunostaining analysis was carried out to determine the ability of intracellular Plk1 to localize to centrosomes and kinetochores, an event that requires PBD-mediated protein-protein interaction (Lee et al., Trends Pharmacol. Sci. 36, 858-877 (2015); and Elia et al., Cell 115, 83-95 (2003)). […] A short treatment time (i.e., 2 h), which was intended to minimize a potential indirect effect of these inhibitors, was sufficient to delocalize greater than 70% of Plk1 signals from centrosomes (marked by anti-Cep63 signals) and 90% of those from kinetochores (marked by anti-CREST signals).

Cc1noc(C)c1C=CC(=O)NCCCn1c(=O)c2cc(F)ccc2n2c(=S)[nH]nc12 [compound 121, 3-(3,5-dimethylisoxazol-4-yl)-N-(3-(7-fluoro-5-oxo-1-thioxo-1,2-dihydro-[1,2,4]triazolo[4,3-a]quinazolin-4(5H)-yl)propyl)propenamide]
Papp [1]: 27.6 ×10⁻⁶ cm/s

CC(=O)NCCCn1c(=O)c2cc(F)ccc2n2c(=S)[nH]nc12 [compound 73]
t1/2 (min, RLM) [2]: >30 min
Solub. [3]: >50 µg/mL
sensitivity of conversion to 14 to ketoconazole (CYP3A inhibitor) [4]: refractory to ketoconazole treatment
PAMPA: 18.0 ×10⁻⁶ cm/s

O=c1c2cc(F)ccc2n2c(=S)[nH]nc2n1CC1CC1 [compound 79]
inhibition of Plk3 PBD, FP assay [5]: failed to exhibit any detectable level of inhibition
t1/2 (min, RLM) [2]: >30 min
inhibition of Plk2 PBD, FP assay [6]: failed to exhibit any detectable level of inhibition
solubility [3]: moderate to good solubility
Solub. [3]: 16.2 µg/mL
PAMPA: 46.0 ×10⁻⁶ cm/s

CSc1nnc2n(CCc3ccccc3)c(=O)c3ccccc3n12 [Example 6, 1-(methylthio)-4-phenethyl-[1,2,4]triazolo[4,3-a]quinazolin-5(4H)-one]
concentration required to induce mitotic arrest and affect proliferation [7]: > 100 µM

CNc1ccc(C(=O)NCCn2cc(C=C3C(=O)NC(=O)NC3=O)c(-c3ccccc3)n2)cc1 [KBJK557]
cross-reactivity among Plk1-3 PBDs [8]: considerable cross-reactivities among Plk1-3 PBDs

7-fluoro-4-(2-(piperidin-1-yl)ethyl)-1-thioxo-2,4-dihydro-[1,2,4]triazolo[4,3-a]quinazolin-5(1H)-one [Example 49]
t1/2 (min, RLM) [9]: >30 min

PLHST [6b]
activity in FP-based assay [10]: no detectable activity

CCCn1c(=O)c2ccccc2n2c(SC)nnc12 [compound 143, 1-(methylthio)-4-propyl-[1,2,4]triazolo[4,3-a]quinazolin-5(4H)-one]
half-life [11]: 3.77 min
half-life [12]: > 120 min
half-life [13]: > 120 min
half-life [14]: 9.41 min
half-life ([15]; male, C57BL/6, mouse, serum, ip, 20 mg/kg, in vivo, intraperitoneal, read-out: t1/2 in vivo): 28.7 ± 8.3 min
metabolites in serum ([15]; ≥15 min post-injection): both the hydroxylated and demethylated products were detected in the serum
half-life [16]: 16.8 min
half-life [17]: > 120 min
half-life at 20 µM [18]: 11.4 ± 3.49 min
IC50 [19]: > 50 µM
spindle bipolarity [20]: significantly compromised
inhibition at 100 µM ([20]; read-out: inhibition of Plk1 localization to centrosomes): ~20%
inhibition at 100 µM ([20]; read-out: inhibition of Plk1 localization to kinetochores): ~50%
